Assay results taken from publication PMC8921064 (Archives of Toxicology, 2022).

Key:
[1] = system: human liver microsomes (HLM); test: Human liver microsomal incubation, metabolite formation quantified by UPLC; conditions: HLM
Experimental: (§1) The incubation mixtures were prepared and incubated in glass vials to avoid plastic binding of the substrates. The glass vials were capped to prevent substrate loss due to volatility. After preincubation of the incubation mixture at 37 °C for 1 min, the enzymatic reaction was initiated by adding microsomes to the incubation mixture which was subsequently incubated at 37 °C for 20 min. The reaction was terminated by adding 100 µl ice-cold acetonitrile followed by vortexing. After 5 min centrifugation at 5000 rpm (4000 × g), 4 °C, the supernatant was collected for ultraperformance liquid chromatography (UPLC) analysis. […] Therefore, a diisopropylether (DIPE) extraction of the metabolites was performed after the reaction was stopped by the addition of 20 µl 10% HClO4. To this end, the incubation mixture (total volume of 220 µl) was extracted three times with 1 ml DIPE. Each time, the upper organic layer was collected and the DIPE was subsequently evaporated from the combined organic fractions with a gentle stream of nitrogen. The residues were dissolved in 100 µl methanol and analyzed by UPLC.
(§2) The metabolites formed were analyzed and quantified using an Acquity UPLC system equipped with a photodiode array (PDA) detector (Waters, Milford, MA). The metabolites and their parent compound were separated on a reverse phase Acquity UPLC® BEH C18 column ([…], 1.7 µm, Waters, Milford, MA) and detected at wavelengths ranging from 190 to 400 nm. Eluent A was nano-pure water containing 0.1% trifluoroacetic acid (v/v), and eluent B was acetonitrile containing 0.1% trifluoroacetic acid (v/v). The gradient elution started from 90% A and 10% B applied from 0.0 min to 0.5 min, which was changed to 0% A and 100% B from 0.5 to 15.5 min and then kept at 0% A and 100% B from 15.5 min to 18.5 min, changed back to 90% A and 10% B from 18.5 to 18.6 min and then maintained at the starting conditions from 18.6 min until 22 min. The total run time was 22 min using a flow rate of 0.6 ml/min. The temperature of the column was set at 40 °C and that of the autosampler at 10 °C during the UPLC analysis. The injection volume was 3.5 µl. Metabolites were quantified using their peak area at the wavelength specified in Table 1, using calibration curves of available reference compounds. Metabolites were identified by comparing their retention time (RT) and UV spectrum to those of reference chemicals on UPLC. When reference chemicals were not available, metabolite identification by gas chromatography-triple quadrupole mass spectrometry (GC–MS/MS) was performed. The minor metabolites were identified by elution time and mass spectra both on UPLC and GC–MS/MS, and by comparison with available elution and spectral information from the literature.
(§3) The metabolite concentrations in the microsomal incubation mixtures as quantified by UPLC were used to calculate the rate of the enzymatic conversions in pmol/min/mg microsomal protein. The kinetic parameters KM and Vmax were obtained using a nonlinear regression curve fit applying the Michaelis Menten equation in GraphPad Prism 5 (San Diego, USA). To compare the catalytic efficiency of formation of the different metabolites the intrinsic clearance (Clint) was calculated as Vmax divided by KM.

[2] = system: rat liver microsomes (RLM); test: Rat liver microsomal incubation, metabolite formation quantified by UPLC; conditions: RLM
Experimental: as §1, §2, §3

[3] = system: Salmonella typhimurium TA98; test: Reverse mutation assay (Ames test), TA98; conditions: for Increase in the number of revertants compared to the concurrent solvent control: TA98, presence of 5% S9-mix, 10–100 µg; for Mutagenicity (conclusion): TA98, positive if more than threefold over control
Experimental: Six concentrations of each compound were tested in triplicate in the absence and presence of 5% (v/v) S9-mix prepared from the livers of Aroclor 1254 treated Sprague–Dawley rats. The S9-mix contained 4 mM NADP, 5.8 mM glucose-6-phosphate, 0.1 M sodium phosphate pH 7.4, 8 mM MgCl2, 33 mM KCl and 5% S9 homogenate. Fresh bacterial cultures were prepared overnight to reach 10^9 cells/ml. The following solutions were pre-incubated in a rotating incubator at 70 rpm and 37 °C, and contained either 0.5 ml S9-mix (in case of S9 presence) or 0.5 ml 0.1 M potassium phosphate pH 7.4 (in case of S9 absence), 0.1 ml of a fresh bacterial culture (10^9 cells/ml) of TA98 or TA100, […] Top agar was melted and heated to 45 °C. After preincubation, the substrate solutions were added to 3 ml of the molten top agar and mixed by vortexing and the top agar mixture was poured onto a minimal glucose agar plate. After solidification of the top agar, the plates were incubated at 37 °C for 48 h. The number of revertant colonies per plate was automatically counted with the Instem Sorcerer Colony Counter (Staffordshire, UK). In the absence of S9-mix, 2-nitrofluorene (NF) and methylmethanesulfonate (MMS) were tested as positive controls for incubations with TA98 and TA100, respectively. In the presence of S9-mix, 2-aminoanthracene (2AA) was tested as a positive control in both TA98 and TA100. DMSO was tested as a solvent control in both tester strains.

[4] = system: Salmonella typhimurium TA100; test: Reverse mutation assay (Ames test), TA100; conditions: for His + revertant colonies TA100 without S9-mix: mean ± SD of 3 plates; for Increase in the number of revertants compared to the concurrent solvent control: TA100, presence of 5% S9-mix, 10–100 µg; for Mutagenicity (conclusion): TA100, positive if more than twofold over control
Experimental: Six concentrations of each compound were tested in triplicate in the absence and presence of 5% (v/v) S9-mix prepared from the livers of Aroclor 1254 treated Sprague–Dawley rats. The S9-mix contained 4 mM NADP, 5.8 mM glucose-6-phosphate, 0.1 M sodium phosphate pH 7.4, 8 mM MgCl2, 33 mM KCl and 5% S9 homogenate. Fresh bacterial cultures were prepared overnight to reach 10^9 cells/ml. The following solutions were pre-incubated in a rotating incubator at 70 rpm and 37 °C, and contained either 0.5 ml S9-mix (in case of S9 presence) or 0.5 ml 0.1 M potassium phosphate pH 7.4 (in case of S9 absence), 0.1 ml of a fresh bacterial culture (10^9 cells/ml) of TA98 or TA100, and 10–100 µg test compound. Top agar was melted and heated to 45 °C. After preincubation, the substrate solutions were added to 3 ml of the molten top agar and mixed by vortexing and the top agar mixture was poured onto a minimal glucose agar plate. After solidification of the top agar, the plates were incubated at 37 °C for 48 h. The number of revertant colonies per plate was automatically counted with the Instem Sorcerer Colony Counter (Staffordshire, UK). In the absence of S9-mix, 2-nitrofluorene (NF) and methylmethanesulfonate (MMS) were tested as positive controls for incubations with TA98 and TA100, respectively. In the presence of S9-mix, 2-aminoanthracene (2AA) was tested as a positive control in both TA98 and TA100. DMSO was tested as a solvent control in both tester strains.

mouse skin = system: mouse skin; set-up: method as in Buening et al. [1979]; LaVoie et al. [1981]; conditions: mouse skin painting; ref Buening et al. [1979]; LaVoie et al. [1981]; cited from earlier work
S. typhimurium TA98 = conditions: cited from earlier work
S. typhimurium TA100 = conditions: cited from earlier work
[5] = Human liver microsomal incubation, metabolite formation quantified by UPLC; conditions: human, microsomes, pH 7.4
Experimental: as §1, §2, §3

[6] = Rat liver microsomal incubation, metabolite formation quantified by UPLC; conditions: Sprague-Dawley, rat, microsomes, pH 7.4
Experimental: as §1, §2, §3

[7] = system: Chinese hamster bone marrow cells; set-up: method as in Bayer [1978]; conditions: in vivo exposure; ref Bayer [1978]; cited from earlier work
[8] = ref Bucker et al. [1979], Wood et al. [1979]

Compound: Cc1cc2ccccc2c2ccccc12 [9-Methylphenanthrene]
- Vmax, formation of 1,2-Dihydro-9-methylphenanthrene-diol RT = 4.27 min ([1]; substrate 9-Methylphenanthrene): 15.6 ± 2.4 pmol/min/mg microsomal protein
- Vmax, formation of 3,4-Dihydro-9-methylphenanthrene-diol RT = 2.98 min ([1]; substrate 9-Methylphenanthrene): 26.1 ± 3.0 pmol/min/mg microsomal protein
- Vmax, formation of 9-(Hydroxymethyl)-phenanthrene RT = 5.6 min ([1]; substrate 9-Methylphenanthrene): 415.9 ± 43.9 pmol/min/mg microsomal protein
- Vmax, formation of 9-Methylphenanthrol RT = 6.28 min ([1]; substrate 9-Methylphenanthrene): 27.8 ± 6.7 pmol/min/mg microsomal protein
- Vmax, formation of 9-Methylphenanthrol RT = 6.73 min ([1]; substrate 9-Methylphenanthrene): 44.9 ± 19.4 pmol/min/mg microsomal protein
- Vmax, formation of 9-(Hydroxymethyl)-phenanthrene RT = 5.6 min ([2]; substrate 9-Methylphenanthrene): 1543 ± 226.6 pmol/min/mg microsomal protein
- Vmax, formation of 9-Methylphenanthrol RT = 6.73 min ([2]; substrate 9-Methylphenanthrene): 27.2 ± 5.1 pmol/min/mg microsomal protein
- Vmax, formation of 9-Methylphenanthrol RT = 6.87 min ([2]; substrate 9-Methylphenanthrene): 124.2 ± 29.2 pmol/min/mg microsomal protein
- Vmax, formation of 9-Methylphenanthrol RT = 7.2 min ([2]; substrate 9-Methylphenanthrene): 41.4 ± 23.4 pmol/min/mg microsomal protein
- Vmax, formation of 9-Methylphenanthrol RT = 7.25 min ([2]; substrate 9-Methylphenanthrene): 10.2 ± 1.9 pmol/min/mg microsomal protein
- Increase in the number of revertants compared to the concurrent solvent control [3]: 2.5 fold
- Increase in the number of revertants relative to the historical control data ([3]; TA98, presence of S9-mix): 3.2 fold
- Mutagenicity (conclusion) [3]: indicative of mutagenicity
- His + revertant colonies TA100 without S9-mix ([4]; 2 µg/plate): 121±7
- His + revertant colonies TA100 without S9-mix ([4]; 4 µg/plate): 109±3
- His + revertant colonies TA100 without S9-mix ([4]; 10 µg/plate): 105±11
- His + revertant colonies TA100 without S9-mix ([4]; 20 µg/plate): 97±20
- His + revertant colonies TA100 without S9-mix ([4]; 40 µg/plate): 59±40
- Cytotoxicity at the test doses ([4]; TA100, absence of S9 mix): showed cytotoxicity
- Increase in the number of revertants compared to the concurrent solvent control [4]: 1.9 fold
- Increase in the number of revertants relative to the historical control data ([4]; TA100, presence of S9-mix): 2.0 fold
- Mutagenicity (conclusion) [4]: indicative of mutagenicity
- Tumor-initiating activity (mouse skin): neither phenanthrene nor its monomethylated analogs
- Increase in revertants (S. typhimurium TA98; ref LaVoie et al. [1983]): 1.3 fold
- Increase in revertants (S. typhimurium TA100; ref LaVoie et al. [1983]): 3.0 fold

Compound: c1ccc2c(c1)ccc1ccccc12 [Phenanthrene]
- microsomal CLint [5]: 24.2 µL/min/mg
- Vmax, formation of 1,2-Dihydro-phenanthrene-diol RT = 3.57 min ([1]; substrate Phenanthrene): 152.5 ± 14.4 pmol/min/mg microsomal protein
- Vmax, formation of 1-Phenanthrol RT = 6.31 min ([1]; substrate Phenanthrene): 125.2 ± 5.4 pmol/min/mg microsomal protein
- Vmax, formation of 3,4-Dihydro-phenanthrene-diol RT = 2.13 min ([1]; substrate Phenanthrene): 61.5 ± 6.3 pmol/min/mg microsomal protein
- Vmax, formation of 3,4-Dihydro-phenanthrene-diol RT = 2.24 min ([1]; substrate Phenanthrene): 6.0 ± 0.3 pmol/min/mg microsomal protein
- Vmax, formation of 4-Phenanthrol RT = 6.55 min ([1]; substrate Phenanthrene): 18.0 ± 3.9 pmol/min/mg microsomal protein
- Vmax, formation of 9,10-Dihydro-phenanthene-diol RT = 3.38 min ([1]; substrate Phenanthrene): 287.8 ± 17.1 pmol/min/mg microsomal protein
- microsomal CLint [6]: 7.3 µL/min/mg
- Vmax, formation of 1,2-Dihydro-phenanthrene-diol RT = 3.57 min ([2]; substrate Phenanthrene): 79.3 ± 6.5 pmol/min/mg microsomal protein
- Vmax, formation of 1-Phenanthrol RT = 6.31 min ([2]; substrate Phenanthrene): 123.9 ± 19.2 pmol/min/mg microsomal protein
- Vmax, formation of 3,4-Dihydro-phenanthrene-diol RT = 2.13 min ([2]; substrate Phenanthrene): 10.3 ± 1.8 pmol/min/mg microsomal protein
- Vmax, formation of 3-Phenanthrol RT = 6.02 min ([2]; substrate Phenanthrene): 21.3 ± 2.0 pmol/min/mg microsomal protein
- Vmax, formation of 4-Phenanthrol RT = 6.55 min ([2]; substrate Phenanthrene): 24.5 ± 5.5 pmol/min/mg microsomal protein
- Vmax, formation of 9,10-Dihydro-phenanthene-diol RT = 3.28 min ([2]; substrate Phenanthrene): 9.8 ± 0.6 pmol/min/mg microsomal protein
- Vmax, formation of 9,10-Dihydro-phenanthene-diol RT = 3.38 min ([2]; substrate Phenanthrene): 529.2 ± 43.2 pmol/min/mg microsomal protein
- Increase in the number of revertants compared to the concurrent solvent control [3]: No increases in the number of revertants were observed
- Mutagenicity (conclusion) [3]: tested negative for mutagenicity
- Increase in the number of revertants compared to the concurrent solvent control [4]: No increases in the number of revertants were observed
- Mutagenicity (conclusion) [4]: tested negative for mutagenicity
- Tumor-initiating activity (mouse skin): neither phenanthrene nor its monomethylated analogs
- DNA adducts [7]: no phenanthrene DNA adducts could be detected
- Mutagenicity (S. typhimurium TA98; [8]): Neither phenanthrene nor its dihydrodiol metabolites were found to be mutagenic
- Mutagenicity (S. typhimurium TA100; [8]): Neither phenanthrene nor its dihydrodiol metabolites were found to be mutagenic
